Publication PMC9719863 (Molecular Metabolism, 2022)
Where no end group is shown, it is not given here.

Key:
[1] = molecular target: T1, mouse GIP receptor (mouse) (UniProt Q0P543)
T1 sequence: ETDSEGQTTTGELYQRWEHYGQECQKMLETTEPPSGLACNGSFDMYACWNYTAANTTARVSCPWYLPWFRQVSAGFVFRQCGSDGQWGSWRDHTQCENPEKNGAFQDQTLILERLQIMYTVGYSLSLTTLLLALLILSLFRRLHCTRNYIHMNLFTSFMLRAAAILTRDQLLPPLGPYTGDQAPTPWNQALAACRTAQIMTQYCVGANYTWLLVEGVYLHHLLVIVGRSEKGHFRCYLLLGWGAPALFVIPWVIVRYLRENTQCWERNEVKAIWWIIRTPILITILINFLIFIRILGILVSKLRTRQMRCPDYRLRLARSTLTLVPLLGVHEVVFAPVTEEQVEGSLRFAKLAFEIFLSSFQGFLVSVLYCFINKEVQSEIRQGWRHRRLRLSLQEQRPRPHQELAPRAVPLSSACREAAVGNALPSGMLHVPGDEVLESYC

[2] = molecular target: T2, human GIP receptor (human) (UniProt P48546)
T2 sequence: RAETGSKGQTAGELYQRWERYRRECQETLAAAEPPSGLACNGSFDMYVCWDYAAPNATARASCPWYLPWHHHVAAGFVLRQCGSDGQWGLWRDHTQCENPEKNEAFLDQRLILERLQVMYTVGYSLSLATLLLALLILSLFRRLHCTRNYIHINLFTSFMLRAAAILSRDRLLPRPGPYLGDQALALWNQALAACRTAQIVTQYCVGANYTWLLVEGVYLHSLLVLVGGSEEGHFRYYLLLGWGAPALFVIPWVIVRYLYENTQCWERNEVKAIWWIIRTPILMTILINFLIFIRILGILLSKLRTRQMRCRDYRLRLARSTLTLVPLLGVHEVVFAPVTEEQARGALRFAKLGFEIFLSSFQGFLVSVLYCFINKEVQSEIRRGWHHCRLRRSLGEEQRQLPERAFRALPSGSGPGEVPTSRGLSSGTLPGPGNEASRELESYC

mGIPR = molecular target: T3, mGIPR (Mus musculus, UniProt Q0P543); test: cAMP CRE-luciferase assay in BHK cells expressing GIPR; format: cell-based; settings: agonist mode, without native ligand
T3 sequence (Q0P543 19-460): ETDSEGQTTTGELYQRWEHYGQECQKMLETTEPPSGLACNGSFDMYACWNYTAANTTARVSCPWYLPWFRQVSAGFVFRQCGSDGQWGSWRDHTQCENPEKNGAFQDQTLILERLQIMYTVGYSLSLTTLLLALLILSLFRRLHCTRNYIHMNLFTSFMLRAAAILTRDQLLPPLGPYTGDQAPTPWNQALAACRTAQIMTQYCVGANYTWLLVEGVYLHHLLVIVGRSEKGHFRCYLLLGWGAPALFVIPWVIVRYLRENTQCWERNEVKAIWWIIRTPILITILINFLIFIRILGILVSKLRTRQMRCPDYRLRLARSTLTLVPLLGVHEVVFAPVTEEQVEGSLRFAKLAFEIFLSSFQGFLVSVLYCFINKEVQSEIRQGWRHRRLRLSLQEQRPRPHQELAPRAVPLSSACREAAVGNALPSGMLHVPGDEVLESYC

hGIPR = molecular target: T4, hGIPR (Homo sapiens, UniProt P48546); test: as above; format: cell-based; settings: agonist mode; for Agonism at the hGIPR (cAMP production by peptide alone): without native ligand
T4 sequence (P48546 22-466): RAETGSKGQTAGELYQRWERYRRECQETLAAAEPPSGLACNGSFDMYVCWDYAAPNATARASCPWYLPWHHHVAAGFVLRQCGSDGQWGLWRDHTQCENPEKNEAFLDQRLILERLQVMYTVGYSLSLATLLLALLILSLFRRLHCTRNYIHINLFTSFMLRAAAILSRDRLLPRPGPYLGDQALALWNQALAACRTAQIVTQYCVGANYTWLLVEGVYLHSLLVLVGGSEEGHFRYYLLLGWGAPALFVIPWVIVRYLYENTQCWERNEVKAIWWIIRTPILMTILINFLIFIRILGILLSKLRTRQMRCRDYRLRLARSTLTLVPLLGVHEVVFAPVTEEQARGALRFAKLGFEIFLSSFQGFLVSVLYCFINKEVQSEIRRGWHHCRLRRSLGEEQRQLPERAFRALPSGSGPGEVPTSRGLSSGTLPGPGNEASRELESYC

Compound | Agonism at the mGIPR (cAMP production by peptide alone) (mGIPR) | Agonism at the hGIPR (cAMP production by peptide alone) (hGIPR) | also measured
[Pla6, L14, R18, E21] hGIP(6-31) (peptide) |  |  | maximal % inhibition of GIP-induced cAMP in BHK cells expressing mGIPR [1]: 99%; maximal % inhibition of GIP-induced cAMP in BHK cells expressing hGIPR [2]: 98%
TFISDYSIALDKIRQQEFVNWLLAQKG [Peptide 3, [L14, R18, E21] hGIP(5–31)] | no significant agonism | partial agonism | 
mouse GIP (from UniProt P48756 44-85) (ligand) |  |  | EC50 of cAMP production (CRE-luciferase) in BHK cells expressing hGIPR [2]: 0.01 nM
EGTFISDYSIALDKIRQQEFVNWLLAQK-NH2 [Peptide 2, [L14, R18, E21] hGIP(3–30)] | no significant agonism | partial agonism | 
CCCCCCCCCCCCCCCC(=O)N[C@@H](CCC(=O)NCCCC[C@H](NC(=O)[C@H](Cc1ccc(O)cc1)NC(=O)[C@H](CC(=O)O)NC(=O)[C@H](CO)NC(=O)[C@@H](NC(=O)[C@H](Cc1ccccc1)NC(=O)[C@@H](NC(=O)CNC(=O)[C@@H](N)CCC(=O)O)[C@@H](C)O)[C@@H](C)CC)C(=O)N[C@H](C(=O)N[C@@H](C)C(=O)N[C@@H](CC(C)C)C(=O)N[C@@H](CC(=O)O)C(=O)N[C@@H](CCCCN)C(=O)N[C@H](C(=O)N[C@@H](CCCNC(=N)N)C(=O)N[C@@H](CCC(N)=O)C(=O)N[C@@H](CCC(N)=O)C(=O)N[C@@H](CCC(=O)O)C(=O)N[C@@H](Cc1ccccc1)C(=O)N[C@H](C(=O)N[C@@H](CC(N)=O)C(=O)N[C@@H](Cc1c[nH]c2ccccc12)C(=O)N[C@@H](CC(C)C)C(=O)N[C@@H](CC(C)C)C(=O)N[C@@H](C)C(=O)N[C@@H](CCC(N)=O)C(=O)N[C@@H](CCCCN)C(N)=O)C(C)C)[C@@H](C)CC)[C@@H](C)CC)C(=O)O [Peptide 6, [L14, R18, E21] hGIP(3–30)-K11 (γE-C16)] | negligible cAMP production as agonists | negligible cAMP production as agonists | 
FISDYSIALDKIRQQEFVNWLLAQKG [Peptide 4, [L14, R18, E21] hGIP(6–31)] | no significant agonism | partial agonism | 
CC[C@H](C)[C@H](NC(=O)[C@H](CO)NC(=O)[C@H](Cc1ccc(O)cc1)NC(=O)[C@H](CC(=O)O)NC(=O)[C@H](CO)NC(=O)[C@@H](NC(=O)[C@H](Cc1ccccc1)NC(=O)[C@@H](NC(=O)CNC(=O)[C@H](CCC(=O)O)NC(=O)[C@H](C)NC(=O)[C@@H](N)Cc1ccc(O)cc1)[C@@H](C)O)[C@@H](C)CC)C(=O)N[C@@H](C)C(=O)N[C@@H](CCSC)C(=O)N[C@@H](CC(=O)O)C(=O)N[C@@H](CCCCN)C(=O)N[C@H](C(=O)N[C@@H](CCCNC(=N)N)C(=O)N[C@@H](CCC(N)=O)C(=O)N[C@@H](CCC(N)=O)C(=O)N[C@@H](CC(=O)O)C(=O)N[C@@H](Cc1ccccc1)C(=O)N[C@H](C(=O)N[C@@H](CC(N)=O)C(=O)N[C@@H](Cc1c[nH]c2ccccc12)C(=O)N[C@@H](CC(C)C)C(=O)N[C@@H](CC(C)C)C(=O)N[C@@H](C)C(=O)N[C@@H](CCC(N)=O)C(=O)N[C@@H](CCCNC(=N)N)C(=O)NCC(=O)N[C@@H](CCCCN)C(=O)N[C@@H](CCCCN)C(=O)N[C@@H](CO)C(=O)N[C@@H](CC(=O)O)C(=O)N[C@@H](Cc1c[nH]c2ccccc12)C(=O)N[C@@H](CCCCN)C(=O)N[C@@H](Cc1c[nH]cn1)C(=O)N[C@@H](CC(N)=O)C(=O)N[C@H](C(=O)N[C@H](C(=O)N[C@@H](CCC(N)=O)C(=O)O)[C@@H](C)O)[C@@H](C)CC)C(C)C)[C@@H](C)CC [mGIP, reference compound] |  |  | EC50 (hGIPR; cAMP EC50, hGIPR, native ligand, Table 1): 0.01 nM
[Pla6, L14, R18, E21] hGIP(6-31)-K11 (γE-C16) (peptide) |  |  | maximal % inhibition of GIP-induced cAMP in BHK cells expressing mGIPR [1]: 99%; maximal % inhibition of GIP-induced cAMP in BHK cells expressing hGIPR [2]: 100%
